Assay [1] concerns platelet-rich human plasma; platelet aggregation induced by ADP. The assay is described as follows: Platelet aggregation (platelet-rich human plasma) induced in vitro by ADP. Conditions: platelet-rich human plasma, 300,000 platelets/cm^2, 2.0 μg/ml of ADP; read-out: IC50, inductor: ADP. Type of assay: cell-based. The method, then:
(§1) Study of the Effects on the Platelet Aggregation (Platelet-Rich Human Plasma) Induced in Vitro By: ADP, Collagen or Arachidonic Acid Blood samples from volunteer donors are treated and adjusted to a platelet concentration of 300,000/cm^2 and then incubated with different concentrations of the test products. Aggregation is induced by 2.0 μg/ml of ADP or by 10.0 μg/ml of collagen. The measurements are made using a Bryston-type aggregometer--or CHRONOLOG. The changes in optical density are noted and the values of the concentrations which cause a 50% inhibition are calculated.

For assay [2], the system named is platelet-rich human plasma; platelet aggregation induced by collagen. As to the kind of experiment: Platelet aggregation (platelet-rich human plasma) induced in vitro by collagen. The class given is cell-based. Conditions: platelet-rich human plasma, 300,000 platelets/cm^2, 10.0 μg/ml of collagen; read-out: IC50, inductor: collagen. The protocol: as §1
The test system of another assay is platelet aggregation. As to the kind of experiment: In vitro inhibition of platelet aggregation (BORN's method), induced by collagen or ADP. The class given is cell-based, animal and human. The conditions noted are these: 100 μg/ml, aspirin as reference. The protocol:
In vitro inhibition of platelet aggregation The inhibition of platelet aggregation is measured in vitro by BORN's method (Nature 4832, 927 (1962)), the aggregation being induced by collagen or ADP. […] The aggregation can also be induced in vitro by serotonin, arachidonic acid and norepinephrine. Furthermore, this inhibitory effect was observed on platelet-rich plasma (PRP) of animal origin and human origin.

Converted amounts (≈) assume the structure as drawn. Where a name gives a salt, the structure may show the parent alone.

The IC50 is the concentration that inhibits the measured activity by half. `c1ccc(C2C(=NOCCN3CCOCC3)c3ccccc3C2=NOCCN2CCOCC2)cc1` (stereo not shown) [Example 24, 1,3-Bis(2-Morpholinoethoxyimino)-2-Phenyl-(1H)-Indene-(2H) Dihydrochloride]: the IC50 in assay [1] was 210 µg/mL; in assay [2], 340 µg/mL. For the same compound, in the assay with platelet aggregation, the “inhibition of platelet aggregation compared with aspirin” value (from here on “inhibition … compared with aspirin”) is listed as “comparable or even superior to aspirin”.

For the compound `CCN(CC)CCON=C1c2ccccc2C(=NOCCN(CC)CC)C1c1ccccc1` (stereo not shown) [Example 21, 1,3-Bis(2-Diethylaminoethoxyimino)-2-Phenyl-(1H)-Indene-(2H) Dihydrochloride], the IC50 in assay [1] was 24 µg/mL; in assay [2], 40 µg/mL. In the assay with platelet aggregation, the “inhibition … compared with aspirin” value was “comparable or even superior to aspirin”.

In the case of `c1ccc2c(c1)C(=NOCC1CCCCC1)CC(=NOCC1CCCCC1)c1ccccc1-2` [Example 7, 5,7-Bis(Cyclohexylmethoxyimino)-6,7-Dihydro-(5H)-Dibenzo[a,c]Cycloheptene], the IC50 in assay [1] and in assay [2] was 600 µg/mL (≈ 1350 µM) in each case.

For the compound `C=CCON=C1CC(=NOCC=C)c2ccccc2-c2ccccc21` [Example 1, 5,7 -Bis(Allyloxyimino)-6,7-Dihydro-(5H)-Dibenzo[a,c]Cycloheptene], the IC50 was 650 µg/mL (≈ 1960 µM) in assay [1] and 800 µg/mL (≈ 2410 µM) in assay [2].

As to `CCN(CC)CCON=C1c2ccccc2-c2ccccc2C(=NOCCN(CC)CC)C1c1ccccc1.Cl.Cl` (stereo not shown) [Example 32, 5,7-Bis(2-Diethylaminoethoxyimino)-6-Phenyl-6,7-Dihydro-(5H)-Dibenzo[a,c]Cycloheptene Dihydrochloride], the figures for the IC50 in assay [1] and in assay [2] were 18 µg/mL and 20 µg/mL, respectively. Further, the “inhibition … compared with aspirin” value in the assay with platelet aggregation was “comparable or even superior to aspirin”.

In the case of `c1ccc(CCON=C2CC(=NOCCc3ccccc3)c3ccccc3-c3ccccc32)cc1` [Example 9, 5,7-Bis(2-Phenylethoxyimino)-6,7-Dihydro-(5H)-Dibenzo[a,c]Cycloheptene], the IC50 in assay [1] and in assay [2] was 600 µg/mL (≈ 1300 µM) each time.

`O=C(O)CON=C1c2ccccc2C(=NOCC(=O)O)C1c1ccccc1` (stereo not shown) [Example 31, 1,3-Bis(Hydroxycarbonylmethoxyimino)-2-Phenyl-(1H)-Indene-(2H)]: in assay [2], the half-inhibitory concentration (IC50) stood at 250 µg/mL (≈ 679 µM).

Take `c1ccc(CON=C2CC(=NOCc3ccccc3)c3ccccc3-c3ccccc32)cc1` [Example 8, 5,7-Bis(Benzyloxyimino)-6,7-Dihydro-(5H)-Dibenzo[a,c]Cycloheptene]: the values for the IC50 in assay [1] and in assay [2] were 650 µg/mL (≈ 1500 µM) and 800 µg/mL (≈ 1850 µM), respectively.

With `O=C(O)CON=C1CC(=NOCC(=O)O)c2ccccc2-c2ccccc21` [Example 13, 5,7-Bis(Hydroxycarbonylmethoxyimino)-6,7-Dihydro-(5H)-Dibenzo[a,c]Cycloheptene], the IC50 worked out at 400 µg/mL (≈ 1090 µM) in assay [1] and 450 µg/mL (≈ 1220 µM) in assay [2].

`COc1ccc(C2C(=NOCCN3CCCCC3)c3ccccc3C2=NOCCN2CCCCC2)cc1` (stereo not shown) [Example 26, 1,3-Bis(2-Piperidin-1-ylethoxyimino-2-(4-Methoxyphenyl-(1H)-Indene-(2H) Dihydrochloride]: the IC50 stood at 18 µg/mL in assay [1] and 24 µg/mL in assay [2]. The “inhibition … compared with aspirin” value in the assay on platelet aggregation is listed as “comparable or even superior to aspirin”.

As to `CCCON=C1CC(=NOCCC)c2ccccc2-c2ccccc21` [Example 4, 5,7-Bis(n-Propoxyimino)-6,7-Dihydro-(5H)-Dibenzo[a,c]Cycloheptene], the IC50 was 600 µg/mL (≈ 1780 µM) in assay [1] and 420 µg/mL (≈ 1250 µM) in assay [2].

Turning to `CON=C1CC(=NOC)c2ccccc2-c2ccccc21` [Example 2, 5,7-Bis(Methoxyimino)-6,7-Dihydro-(5H)-Dibenzo[a,c]Cycloheptene], the IC50 in assay [2] is 800 µg/mL (≈ 2850 µM).

For the compound `CCOC(=O)CON=C1c2ccccc2C(=NOCC(=O)OCC)C1c1ccccc1` (stereo not shown) [Example 30, 1,3-Bis(Ethoxycarbonylmethoxyimino)-2-Phenyl-(1H)-Indene-(2H)], the IC50 in assay [1] was 210 µg/mL (≈ 495 µM); in assay [2], 150 µg/mL (≈ 353 µM). The “inhibition … compared with aspirin” value in the assay with platelet aggregation was “comparable or even superior to aspirin”.

Regarding `CCOC(=O)CCCON=C1CC(=NOCCCC(=O)OCC)c2ccccc2-c2ccccc21` [Example 12, 5,7-Bis(Ethoxycarbonylpropoxyimino)-6,7-Dihydro-(5H)-Dibenzo[a,c]Cycloheptene], the IC50 in assay [1] was determined as 450 µg/mL (≈ 936 µM); in assay [2] it was 670 µg/mL (≈ 1390 µM).

As for `CC(C)(C)ON=C1CC(=NOC(C)(C)C)c2ccccc2-c2ccccc21` [Example 6, 5,7-Bis(Tert.-Butoxyimino)-6,7-Dihydro-(5H)-Dibenzo[a,c]Cycloheptene], the IC50 came to 460 µg/mL (≈ 1260 µM) in assay [1] and 600 µg/mL (≈ 1650 µM) in assay [2].

Take `c1ccc2c(c1)C(=NOCCN1CCOCC1)CC2=NOCCN1CCOCC1` [Example 23, 1,3-Bis(2-Morpholinoethoxyimino)-(1H)-Indene-(2H) Dihydrochloride]: the values for the IC50 in assay [1] and in assay [2] were 420 µg/mL and 350 µg/mL, respectively.

Turning to `CCN(CC)CCON=C1c2ccccc2-c2ccccc2C(=NOCCN(CC)CC)C1c1ccc(F)cc1.Cl.Cl` (stereo not shown) [Example 33, 5,7-Bis(2-Diethylaminoethoxyimino)-6-(4-Fluorophenyl)-6,7-Dihydro-(5H)-Dibenzo[a,c]Cycloheptene Dihydrochloride], the IC50 in assay [1] worked out at 22 µg/mL; in assay [2], 12 µg/mL. Besides, the “inhibition … compared with aspirin” value in the assay with platelet aggregation was “comparable or even superior to aspirin”.

Turning to `CCN(CC)CCON=C1c2ccccc2C(=NOCCN(CC)CC)C1c1ccc(C)cc1` (stereo not shown) [Example 28, 1,3-Bis(2-Diethylaminoethoxyimino)-2-(4-Methylphenyl)-(1H)-Indene-(2H) Dihydrochloride], the IC50 is 40 µg/mL in assay [1] and 62 µg/mL in assay [2]. For the same compound, in the assay on platelet aggregation, the “inhibition … compared with aspirin” value is given as “comparable or even superior to aspirin”.

For `c1ccc(C2C(=NOCCN3CCCCC3)c3ccccc3C2=NOCCN2CCCCC2)cc1` (stereo not shown) [Example 25, 1,3-Bis(2-Piperidin-1-ylethoxyimino)-2-Phenyl-(1H)-Indene-(2H) Dihydrochloride], the IC50 in assay [1] amounted to 20 µg/mL; in assay [2] it was 38 µg/mL. The “inhibition … compared with aspirin” value with platelet aggregation is given as “comparable or even superior to aspirin”.

`CCON=C1CC(=NOCC)c2ccccc2-c2ccccc21` [Example 3, 5,7-Bis(Ethoxyimino)-6,7-Dihydro-(5H)-Dibenzo[a,c]Cycloheptene]: the results for the IC50 in assay [1] and in assay [2] were 620 µg/mL (≈ 2010 µM) and 500 µg/mL (≈ 1620 µM), respectively.

For `CC(C)(C)OC(=O)CON=C1CC(=NOCC(=O)OC(C)(C)C)c2ccccc2-c2ccccc21` [Example 11, 5,7-Bis(Tert.-Butoxycarbonylmethoxyimino)-6,7-Dihydro-(5H)-Dibenzo[a,c]Cycloheptene], the figures for the IC50 in assay [1] and in assay [2] were 200 µg/mL (≈ 416 µM) and 320 µg/mL (≈ 666 µM), respectively.

As for `CCOC(=O)CON=C1CC(=NOCC(=O)OCC)c2ccccc2-c2ccccc21` [Example 10, 5,7-Bis(Ethoxycarbonylmethoxyimino)-6,7-Dihydro-(5H)-Dibenzo[a,c]Cycloheptene], the IC50 in assay [1] was 400 µg/mL (≈ 942 µM); in assay [2], 650 µg/mL (≈ 1530 µM).

Regarding `CCN(CC)CCON=C1c2ccccc2C(=NOCCN(CC)CC)C1c1ccc2c(c1)OCO2` (stereo not shown) [Example 29, 1,3-Bis(2-Diethylaminoethoxyimino)-2-(3,4-Methylenedioxyphenyl)-(1H)-Indene-(2H) Dihydochloride], the IC50 in assay [1] was determined as 100 µg/mL (≈ 202 µM); in assay [2], 110 µg/mL (≈ 222 µM). The “inhibition … compared with aspirin” value with platelet aggregation is reported as “comparable or even superior to aspirin”.

For `CCN(CC)CCON=C1c2ccccc2-c2ccccc2C(=NOCCN(CC)CC)C1c1ccc(OC)cc1.Cl.Cl` (stereo not shown) [Example 35, 5,7-Bis(Diethylaminoethoxyimino)-6-(4-Methoxyphenyl)-6,7-Dihydro-(5H)-Dibenzo[a,c]Cycloheptene Dihydrochloride], the IC50 in assay [1] is 16 µg/mL; in assay [2], 25 µg/mL. Moreover, in the assay on platelet aggregation, the “inhibition … compared with aspirin” value is “comparable or even superior to aspirin”.

On to `Cl.Cl.c1ccc2c(c1)C(=NOCCN1CCCCC1)CC(=NOCCN1CCCCC1)c1ccccc1-2` [Example 20, 5,7-Bis(Piperidin-1-ylethoxyimino)-6,7-Dihydro-(5H)-Dibenzo[a,c]Cycloheptene Dihydrochloride], for which the IC50 in assay [1] was 80 µg/mL; in assay [2], 120 µg/mL. Further, the “inhibition … compared with aspirin” value in the assay with platelet aggregation was “comparable or even superior to aspirin”.

As for `CCN(CC)CCON=C1c2ccccc2-c2ccccc2C(=NOCCN(CC)CC)C1c1ccc(Cl)cc1.Cl.Cl` (stereo not shown) [Example 34, 5,7-Bis(2-Diethylaminoethoxyimino)-6-(4-Chlorophenyl)-6,7-Dihydro-(5H)-Dibenzo[a,c]Cycloheptene Dihydrochloride], the figures for the IC50 in assay [1] and in assay [2] were 24 µg/mL and 40 µg/mL, respectively. Further, the “inhibition … compared with aspirin” value in the assay with platelet aggregation is on record as “comparable or even superior to aspirin”.

For the compound `CCN(CC)CCON=C1c2ccccc2C(=NOCCN(CC)CC)C1c1ccc(Cl)cc1` (stereo not shown) [Example 27, 1,3-Bis(2-Diethylaminoethoxyimino)-2-(4-Chlorophenyl)-(1H)-Indene-(2H) Dihydrochloride], the IC50 came out at 28 µg/mL in assay [1] and 40 µg/mL in assay [2]. In the assay with platelet aggregation, the “inhibition … compared with aspirin” value is reported as “comparable or even superior to aspirin”.

In the case of `N#CCCCON=C1CC(=NOCCCC#N)c2ccccc2-c2ccccc21` [Example 5, 5,7-Bis(3-Cyanopropoxyimino)-6,7-Dihydro-(5H)-Dibenzo[a,c]Cycloheptene], the IC50 in assay [1] was 420 µg/mL (≈ 1090 µM); in assay [2], 650 µg/mL (≈ 1680 µM).
